Assay results reported in patent publication US20150265630A1, “6-Substituted Estradiol Derivatives for the Treatment of Alzheimer's Disease” (Endece LLC, priority 2014, published 2015).

Legend:
Type in all cases: cell-based
[1] = test system: Apolipoprotein C2 (ApoC2); assay: Expression profiling (Agilent whole human genome microarray), ApoC2 mRNA in human tumor cell lines; conditions: for Gene expression value, Apolipoprotein C2 (ApoC2), treated vs untreated: 50 μM, 24 hours
Description: (§1) The study includes three human tumor cell lines: A549, Panc-1, and SK-OV-3. The lines are each grown in two flasks cultured to roughly 40% confluence. One of the flasks is treated by addition of compound to the culture media at a various concentrations, i.e. 10 μM, 20 μM 50 μM, or 100 μM. The other, mock treated, flask is treated only with the vehicle used to solubilize and deliver the drug. RNA extracted from the pairs of treated and untreated samples is subjected to microarray analysis on Agilent Whole Human Genome Microarrays (G4112F). Each analysis reports the difference in abundance of messenger RNAs for each of the 41,000 specific mRNA detectors on the array. This direct comparison of the treated versus untreated samples for each cell line provides extremely sensitive detection of changes in mRNA abundance resulting from the drug treatment. As each cell line comparison is self-normalized, the results can be compared across the samples with high confidence.
(§2) Three human tumor cell lines, A549, Panc-1, and SK-OV-3, are each grown in two flasks cultured to roughly 40% confluence. One of the flasks is treated by addition of compound to the culture media at concentrations of 10 μM, 50 μM and 100 μM. The other, mock treated, flask is treated only with the vehicle used to solubilize and deliver the drug. All flasks are cultured for a further 24 hours, and then the cells are scraped free and washed in ice-cold PBS, then collected by centrifugation. The harvested cells are immediately frozen, and stored at −80° C. or colder.
(§3) Total RNA is prepared from the frozen tissue samples using Trizol-based cell lysis followed by 65° C. hot phenol extraction and RNeasy chromatography purification. The purified RNA samples are analyzed spectrophotometrically. The concentration of RNA is determined by measuring the absorbance at 260 nm (A260). Given an absorbance of 1 unit at 260 nm corresponds to […] of RNA per ml when measured at pH 11.
(§4) All RNAs are labeled using 1 microgram of RNA as input to an Agilent Low Input Labeling reaction.
(§5) Test RNA is labeled with Cy5 (650 nm emitter) and reference RNA is labeled with Cy3 (550 nm emitter) nucleotides. Labeling, hybridizations and subsequent washings are carried out on Agilent H1Av2 human expression chips. The resulting hybridized chips are scanned on an Agilent microarray scanner, and intensity information for each detector spot is extracted from the scanned image using Agilent feature extraction software. […]
(§6) After the ratios have been calculated for the normalized data, the various control and duplicate samples are analyzed to build a model of how reproducible the results are, and how this reproducibility is varies depending on signal strength and noise. […]

[2] = test system: Apolipoprotein C3 (ApoC3); assay: Expression profiling (Agilent whole human genome microarray), ApoC3 mRNA in human tumor cell lines; conditions: for Gene expression value, Apolipoprotein C3 (ApoC3), treated vs untreated: 50 μM, 24 hours
Description: as §1, §2, §3, §4, §5, §6

[3] = test system: Lipoprotein Lipase mRNA (LPL); assay: Expression profiling (Agilent whole human genome microarray), LPL mRNA in human tumor cell lines; conditions: for Gene expression value, Lipoprotein Lipase mRNA (LPL), treated vs untreated: 50 μM, 24 hours
Description: as §1, §2, §3, §4, §5, §6

[4] = human tumor cell lines SKOV-3, A549 and Panc-1, summary of Table 1

With COCCCCCC[C@@H]1C[C@@H]2[C@H](CC[C@]3(C)C(O)CC[C@@H]23)c2ccc(O)cc21 (stereo partly drawn) [Compound 21, (6R,8R,9S,13S,14S)-6-(6-methoxyhexyl)-13-methyl-7,8,9,11,12,13,14,15,16,17-decahydro-6H-cyclopenta[a]phenanthrene-3,17-diol] the “Gene expression value, Apolipoprotein C2 (ApoC2), treated vs untreated” value ([1]; A549 cells) was 7.21 log2, the “Gene expression value, Apolipoprotein C2 (ApoC2), treated vs untreated” value ([1]; Panc-1 cells) was 6.91 log2 and the “Gene expression value, Apolipoprotein C2 (ApoC2), treated vs untreated” value ([1]; SKOV-3 cells) was 3.89 log2. The “Regulation of the ApoC2 gene (in words)” value [1, 4] was “up-regulate”, the “Gene expression value, Apolipoprotein C3 (ApoC3), treated vs untreated” value ([2]; A549 cells) was 0 log2 and the “Gene expression value, Apolipoprotein C3 (ApoC3), treated vs untreated” value ([2]; Panc-1 cells) was 0 log2. The “Gene expression value, Apolipoprotein C3 (ApoC3), treated vs untreated” value ([2]; SKOV-3 cells) was 0 log2, the “Regulation of the ApoC3 gene (in words)” value [2, 4] was “but not the ApoC3 gene” and the “Gene expression value, Lipoprotein Lipase mRNA (LPL), treated vs untreated” value ([3]; A549 cells, p = 0.0018) was 2.95 log2. The “Gene expression value, Lipoprotein Lipase mRNA (LPL), treated vs untreated” value ([3]; Panc-1 cells) was 3.90 log2, the “Gene expression value, Lipoprotein Lipase mRNA (LPL), treated vs untreated” value ([3]; SKOV-3 cells, p = 0.008) was 2.77 log2 and the “Regulation of the LPL gene (in words)” value [3, 4] was “up-regulate”.
